Test results as given in patent US20090192151A1, “THERAPEUTIC AMIDES AND RELATED COMPOUNDS” (priority 2008, published 2009).

System: lashes and adjacent hairs
Experiment: Clinical observation of lashes and adjacent hairs in glaucoma patients treated with bimatoprost in only one eye
Assay type: in vivo
Text: In the course of treating patients having glaucoma, treatment may only be appropriate in one eye. […] The lash appearance on the lids of the treated eyes would have appeared quite attractive if it represented a bilateral phenomenon. As a result of its asymmetric nature, the long lashes on one side could be construed as disturbing from a cosmetic standpoint. A systemic examination was preformed as a result of the asymmetric phenomenon. It soon became apparent that this altered appearance was not an isolated finding.
The changes in the lashes were apparent on gross inspection in several patients once attention was focused on the issue. In those with light colored hair and lashes, the differences were only seen easily with the aid of the high magnification and lighting capabilities of the slit lamp biomicroscope. In the course of glaucoma follow-up examination, attention is generally immediately focused on the eye itself. As a result of the high power magnification needed only one eye is seen at a time and the eye is seen at a high enough power that the lashes are not in focus. At these higher powers, any lash asymmetry between the two eyes is not likely to be noticed except by careful systematic comparison of the lashes and adjacent hairs of the eyelids of the two eyes.
Observed parameters leading to the conclusion that more robust hair growth occurred in the treatment area following administration of the prostaglandin analogue were multiple. They included increased length of lashed, increased number of lashes along the normal lash line, increased thickness and luster of lashes, increased auxiliary lash-like terminal hair in transitional areas adjacent to areas of normal lash growth, increased auxiliary lash-like terminal hairs at the medial and lateral canthal area, increased pigmentation of the lashes, increased numbers, increased length, as well as increased luster, and thickness of fine hair on the skin of the adjacent lid, and finally, increased perpendicular angulation of lashes and lash-like terminal hairs.

In the case of `CCNC(=O)CCC/C=C\C[C@@H]1[C@@H](/C=C/[C@@H](O)CCc2ccccc2)[C@H](O)C[C@@H]1O` [bimatoprost], the “lash appearance in treated eye versus non-treated eye” value (a glaucoma patient treated with bimatoprost in one eye, gross examination) was “longer, thicker, and fuller in the treated eye than in the non-treated eye”, the “differences in the lashes and adjacent hairs of treated side” value (all patients taking the drug on a unilateral basis for longer than 6 months) was “Definite differences could be identified to varying degrees” and the “hair growth, conclusion from multiple parameters of hair appearance in treated versus control areas” value (many subjects, lash length, number, thickness, luster, pigmentation, auxiliary terminal hairs) was “hair growth is stimulated”.
